Molecular target: T1, 5-HT2A (h) (Homo sapiens, UniProt P28223)
T1 construct: expressed in transfected cells; host or cells: HEK-293 cells
Test: 5-HT2A (h) agonist radioligand [125I](±)DOI binding
Settings: at 10 μM

T1 sequence (P28223 whole entry): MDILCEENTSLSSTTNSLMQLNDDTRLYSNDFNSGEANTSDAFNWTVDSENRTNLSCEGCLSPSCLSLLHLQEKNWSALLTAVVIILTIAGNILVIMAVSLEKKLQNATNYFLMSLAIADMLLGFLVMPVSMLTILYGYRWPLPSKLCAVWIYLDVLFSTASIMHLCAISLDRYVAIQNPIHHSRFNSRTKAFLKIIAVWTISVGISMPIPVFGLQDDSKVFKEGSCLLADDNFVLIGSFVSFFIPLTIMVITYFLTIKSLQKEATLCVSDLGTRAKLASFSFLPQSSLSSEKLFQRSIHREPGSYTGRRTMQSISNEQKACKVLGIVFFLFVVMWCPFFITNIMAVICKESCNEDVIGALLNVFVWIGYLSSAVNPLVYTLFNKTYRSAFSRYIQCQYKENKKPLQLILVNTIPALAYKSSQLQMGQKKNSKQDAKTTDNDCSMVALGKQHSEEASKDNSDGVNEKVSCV

## NCCc1ccc2c(c1)OCS2 [II-14, 2-(benzo[d][1,3]oxathiol-6-yl)ethan-1-amine]
  Binding 5-HT2A (agonist radioligand), % competition: 93.9% competition

— patent US20250145566A1, “PHENETHYLAMINE DERIVATIVES, COMPOSITIONS, AND METHODS OF USE” (Cybin IRL Limited, priority 2022, published 2025)
